Experimental data reported in paper PMC8717366, “Synthesis and Pharmacological Characterization of Visabron, a Backbone Cyclic Peptide Dual Antagonist of α4β1 (VLA-4)/α9β1 Integrin for Therapy of Multiple Sclerosis” (JACS Au, 2021).
Numbered stars: 1 amine (or outer) side, 2 acyl side, 3 side chain; on linkers, the order of the positions; unused ones are H or OH. Bridge positions count the residues as written; N and C are the ends. Square brackets hold non-standard residues; d marks the D form. Peptide text beside a SMILES is read from it. CO = O=C([*:1])[*:2]; Nlys = NCCCCNCC(=O)O

How the values were obtained:
Lck kinase = target: T1, Lck kinase (Homo sapiens, UniProt P06239); assay: SafetyScreen44 enzyme inhibition, Lck kinase; assay type: biochemical
T1 construct: purchased Eurofins Cerep-Panlabs (contract screen) SafetyScreen44
T1 sequence (P06239 whole entry): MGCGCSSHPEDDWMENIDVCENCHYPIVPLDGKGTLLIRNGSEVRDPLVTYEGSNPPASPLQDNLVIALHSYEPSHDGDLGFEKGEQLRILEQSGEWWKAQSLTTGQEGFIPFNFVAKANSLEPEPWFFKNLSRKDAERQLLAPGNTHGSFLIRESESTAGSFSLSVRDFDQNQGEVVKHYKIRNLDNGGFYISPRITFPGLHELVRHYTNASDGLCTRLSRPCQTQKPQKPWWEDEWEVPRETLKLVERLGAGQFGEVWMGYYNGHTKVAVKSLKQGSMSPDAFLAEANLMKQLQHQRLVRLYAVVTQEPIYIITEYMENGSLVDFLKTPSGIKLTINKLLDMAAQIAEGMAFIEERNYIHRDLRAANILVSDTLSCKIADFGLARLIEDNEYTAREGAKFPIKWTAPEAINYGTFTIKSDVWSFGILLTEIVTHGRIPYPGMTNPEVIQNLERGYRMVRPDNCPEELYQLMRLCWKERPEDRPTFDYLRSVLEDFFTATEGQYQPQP
Protocol: Screening of potentially significant off-target effects to binding and enzyme targets was performed via SafetyScreen44 offered by Eurofins Cerep-Panlabs. Visabron c (4–4) was tested at 1 and 0.1 mM. Compound binding was calculated as the percentage of inhibition of the binding of a radioactively labeled ligand specific for each target. The compound enzyme inhibitory effect was calculated as the percentage of inhibition of control enzyme activity. Results showing inhibition higher than 40% were considered to represent significant effects of the tested compound. Results showing inhibition lower than 25% as obtained with 0.1 mM Visabron c (4–4) were not considered significant and were mostly attributable to the variability of the signal around the control level. In each experiment, the respective reference compound was tested concurrently with visabron c (4–4), and the data were compared with historical values determined at Eurofins. The experiment was statistically accepted in accordance with the Eurofins validation standard operating procedure.

[1] = tested on: Jurkat cell migration across TNFα-stimulated HUVEC; assay: Jurkat transmigration across TNFα-stimulated HUVEC monolayer; assay type: cell-based, human; conditions: at 24 h; 1 mg/mL of antagonist; Figure 2B,C
Protocol: Figure 2 Inhibitory effects of visabron c (4–4) on adhesion (A) and transmigration (B, C) of Jurkat cells through the monolayer of TNFα-activated HUVEC. (A) HUVEC were cultured on 96 well plates to 90% confluence in EGM-2 complete media. TNF-α (10 ng/mL) was added to each well for 16 h. Jurkat cells were labeled with calcein-AM ([…]) by 1 h incubation at 37 °C. After three washes, Jurkat cells (1 × 10^5 cells per mL) were mixed with appropriate concentrations of visabron or 10 μM visabres (inset) in EGM-2 media without FBS and supplements (growth factors) and incubated for 15 min at room temperature. […] Cell cultures extracts were measured using the fluorescence plate reader. […] Chambers were incubated at 37 °C, and measurement of fluorescence was performed at the indicated time points using a fluorescence plate reader with a set up bottom measurement option and using FITC filters. […]
trans-Endothelial leukocyte migration was assessed as follows: HUVEC cells were plated onto collagen type IV (5 μg/mL) coated polycarbonate inserts (Transwell, Costar, Cambridge, MA; diameter, 6.5 mm; pore size, 8 μm for a 24-well plate) in serum-containing endothelial cell growth medium and allowed to grow to confluence over 72 h. […] The medium and all washes were pooled, and the fluorescence in each well was quantified with a SPECTRAFluor Plus plate reader at λex = 485 nm and λem = 530 nm. […]

Molecule	Inhibitory effect on Lck (Lck kinase; 100 μM, data not shown)	Inhibition of Lck kinase activity (Lck kinase; 1 mM, Figure 6)	Inhibition of Jurkat migration across TNFα-stimulated HUVEC [1]
CSCC[C@@H]1NC(=O)[C@H]([C@@H](C)O)NC(=O)CN(C(=O)[C@@H](N)CCCCN)CCCCNC(=O)NCCCCN(CC(=O)N[C@@H](CC(C)C)C(N)=O)C(=O)[C@H](CC(=O)O)NC(=O)[C@H](CC(C)C)NC1=O [visabron c (4–4)] (H-K[Nlys]TMLD[Nlys]L-NH2; linker 2-7 via CO)	not observed	strongly inhibited	–
natalizumab: clinical-grade monoclonal antibody anti-α4β1 produced by Biogen Co. [reference compound]	–	–	similar
